{"source": "patent US20110118262A1", "about": "“Pyrrolidinyl and Piperidinyl Compounds Useful as NHE-1 Inhibitiors” (BOEHRINGER INGELHEIM INTERNATIONAL GMBH, priority 2008, published 2011)", "data": [{"biological_target": "T1, NHE-1 (Homo sapiens, UniProt P19634)", "T1 construct": "endogenous in cells; host or cells: HT-29", "T1 sequence (P19634 whole entry)": "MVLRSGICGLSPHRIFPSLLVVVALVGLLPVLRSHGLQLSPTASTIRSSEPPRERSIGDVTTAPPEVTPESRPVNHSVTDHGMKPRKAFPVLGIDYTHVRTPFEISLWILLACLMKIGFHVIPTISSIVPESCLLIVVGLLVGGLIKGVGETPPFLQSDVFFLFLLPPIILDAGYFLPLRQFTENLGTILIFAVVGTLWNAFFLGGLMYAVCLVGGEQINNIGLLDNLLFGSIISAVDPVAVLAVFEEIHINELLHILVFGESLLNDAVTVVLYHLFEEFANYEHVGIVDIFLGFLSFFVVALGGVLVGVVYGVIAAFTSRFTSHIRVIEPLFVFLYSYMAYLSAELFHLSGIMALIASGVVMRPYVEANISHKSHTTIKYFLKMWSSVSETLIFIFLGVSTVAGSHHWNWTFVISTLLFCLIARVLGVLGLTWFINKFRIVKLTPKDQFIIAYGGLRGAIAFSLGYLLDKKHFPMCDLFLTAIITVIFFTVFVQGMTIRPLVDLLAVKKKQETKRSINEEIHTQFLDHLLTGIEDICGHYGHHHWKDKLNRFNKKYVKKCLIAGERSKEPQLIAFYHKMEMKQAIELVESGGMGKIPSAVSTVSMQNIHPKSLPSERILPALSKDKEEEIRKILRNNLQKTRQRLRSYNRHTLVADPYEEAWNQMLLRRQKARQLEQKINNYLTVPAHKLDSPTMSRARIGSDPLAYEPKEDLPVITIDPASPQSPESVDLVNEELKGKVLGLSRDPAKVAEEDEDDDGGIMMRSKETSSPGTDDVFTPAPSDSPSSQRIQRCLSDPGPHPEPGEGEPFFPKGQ", "test": "Evaluation of NHE-1 Inhibition (pHi) in HT-29 cells", "format": "cell-based", "conditions": "BCECF dye, 50% inhibition of the intracellular pH recovery, read-out: NHE1 HT29 pHi IC50", "outline": "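Intracellular pH measured with BCECF in HT-29 cells after 24 h culture. Cells dye-loaded 30 min at 37° C, then acid-loaded with NH4Cl-containing choline buffer (pH 7.5) for 30 min at RT. Compounds added on an FDSS6000 fluorescence reader.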", "units": {"IC50": "nM"}, "values": [{"molecule": "N=C(N)NC(=O)c1ccc(C2CCN(C(=O)C3(N)CCS(=O)(=O)CC3)CC2)c(C(F)(F)F)c1", "note": "[N-{4-[1-(4-Amino-1,1-dioxo-hexahydro-g-thiopyran-4-carbonyl)-piperidin-4-yl]-3-trifluoromethyl-benzoyl}-guanidine]", "IC50": 11}, {"molecule": "N=C(N)NC(=O)c1ccc(C2CCN(C(=O)C3(N)CCOCC3)CC2)c(C(F)(F)F)c1", "note": "[N-{4-[1-(4-Amino-tetrahydro-pyran-4-carbonyl)-piperidin-4-yl]-3-trifluoromethyl-benzoyl}-guanidine]", "IC50": 18}, {"molecule": "N=C(N)NC(=O)c1ccc(C2CCN(C(=O)c3ccc(Cl)cc3)CC2)c(C(F)(F)F)c1", "note": "[N-{4-[1-(4-Chloro-benzoyl)-piperidin-4-yl]-3-trifluoromethyl-benzoyl}-guanidine]", "IC50": 320}, {"molecule": "N#Cc1ccc(C(=O)N2CCC(c3ccc(C(=O)NC(=N)N)cc3C(F)(F)F)CC2)cc1", "note": "[N-{4-[1-(4-Cyano-benzoyl)-piperidin-4-yl]-3-trifluoromethyl-benzoyl}-guanidine]", "IC50": 24}, {"molecule": "CN(C)c1ccc(C(=O)N2CCC(c3ccc(C(=O)NC(=N)N)cc3C(F)(F)F)CC2)cc1", "note": "[N-{4-[1-(4-Dimethylamino-benzoyl)-piperidin-4-yl]-3-trifluoromethyl-benzoyl}-guanidine]", "IC50": 180}, {"molecule": "N=C(N)NC(=O)c1ccc(C2CCN(C(=O)c3ccc(F)cc3C(F)(F)F)CC2)c(C(F)(F)F)c1", "note": "[N-{4-[1-(4-Fluoro-2-trifluoromethyl-benzoyl)-piperidin-4-yl]-3-trifluoromethyl-benzoyl}-guanidine]", "IC50": 350}, {"molecule": "COc1cc(C2CCN(C(=O)c3ccc(F)cc3)CC2)c(C(F)(F)F)cc1C(=O)NC(=N)N", "note": "[N-{4-[1-(4-Fluoro-benzoyl)-piperidin-4-yl]-2-methoxy-5-trifluoromethyl-benzoyl}-guanidine]", "IC50": 16}, {"molecule": "Cc1cc(C2CCN(C(=O)c3ccc(F)cc3)CC2)c(C(F)(F)F)cc1C(=O)NC(=N)N", "note": "[N-{4-[1-(4-Fluoro-benzoyl)-piperidin-4-yl]-2-methyl-5-trifluoromethyl-benzoyl}-guanidine]", "IC50": 7}, {"molecule": "CS(=O)(=O)c1cc(C(=O)NC(=N)N)ccc1C1CCN(C(=O)c2ccc(F)cc2)CC1", "note": "[N-{4-[1-(4-Fluoro-benzoyl)-piperidin-4-yl]-3-methanesulfonyl-benzoyl}-guanidine]", "IC50": 18}, {"molecule": "N=C(N)NC(=O)c1ccc(C2CCN(C(=O)c3ccc(F)cc3)CC2)c(C(F)(F)F)c1", "note": "[N-{4-[1-(4-Fluoro-benzoyl)-piperidin-4-yl]-3-trifluoromethyl-benzoyl}-guanidine]", "IC50": 110}, {"molecule": "Cc1cc(C2CCN(C(=O)c3ccc(F)cc3)CC2)c(S(C)(=O)=O)cc1C(=O)NC(=N)N", "note": "[N-{4-[1-(4-Fluoro-benzoyl)-piperidin-4-yl]-5-methanesulfonyl-2-methyl-benzoyl}-guanidine]", "IC50": 23}, {"molecule": "N=C(N)NC(=O)c1ccc(C2CCN(C(=O)c3ccc(F)cc3)C2)c(C(F)(F)F)c1", "note": "(centres unmarked) [N-{4-[1-(4-Fluoro-benzoyl)-pyrrolidin-3-yl]-3-trifluoromethyl-benzoyl}-guanidine]", "IC50": 40}, {"molecule": "N=C(N)NC(=O)c1ccc(C2CCN(C(=O)c3ccc(O)cc3)CC2)c(C(F)(F)F)c1", "note": "[N-{4-[1-(4-Hydroxy-benzoyl)-piperidin-4-yl]-3-trifluoromethyl-benzoyl}-guanidine]", "IC50": 25}, {"molecule": "N=C(N)NC(=O)c1ccc(C2=CCN(C(=O)c3ccc(-n4ccnc4)cc3)CC2)c(C(F)(F)F)c1", "note": "[N-{4-[1-(4-Imidazol-1-yl-benzoyl)-1,2,3,6-tetrahydro-pyridin-4-yl]-3-trifluoromethyl-benzoyl}-guanidine]", "IC50": 33}, {"molecule": "N=C(N)NC(=O)c1ccc(C2CCN(C(=O)c3ccc(-n4ccnc4)cc3)CC2)c(C(F)(F)F)c1", "note": "[N-{4-[1-(4-Imidazol-1-yl-benzoyl)-piperidin-4-yl]-3-trifluoromethyl-benzoyl}-guanidine]", "IC50": 71}, {"molecule": "C[S+]([O-])c1ccc(C(=O)N2CCC(c3ccc(C(=O)NC(=N)N)cc3C(F)(F)F)CC2)cc1", "note": "(centres unmarked) [N-{4-[1-(4-Methanesulfinyl-benzoyl)-piperidin-4-yl]-3-trifluoromethyl-benzoyl}-guanidine]", "IC50": 28}, {"molecule": "CS(=O)(=O)c1ccc(C(=O)N2CC=C(c3ccc(C(=O)NC(=N)N)cc3C(F)(F)F)CC2)cc1", "note": "[N-{4-[1-(4-Methanesulfonyl-benzoyl)-1,2,3,6-tetrahydro-pyridin-4-yl]-3-trifluoromethyl-benzoyl}-guanidine]", "IC50": 49}, {"molecule": "Cc1cc(C2CCN(C(=O)c3ccc(S(C)(=O)=O)cc3)CC2)c(C(F)(F)F)cc1C(=O)NC(=N)N", "note": "[N-{4-[1-(4-Methanesulfonyl-benzoyl)-piperidin-4-yl]-2-methyl-5-trifluoromethyl-benzoyl}-guanidine]", "IC50": 20}, {"molecule": "CS(=O)(=O)c1ccc(C(=O)N2CCC(c3ccc(C(=O)NC(=N)N)cc3C(F)(F)F)CC2)cc1", "note": "[N-{4-[1-(4-Methanesulfonyl-benzoyl)-piperidin-4-yl]-3-trifluoromethyl-benzoyl}-guanidine]", "IC50": 21}, {"molecule": "COc1ccc(C(=O)N2CCC(c3ccc(C(=O)NC(=N)N)cc3C(F)(F)F)CC2)cc1", "note": "[N-{4-[1-(4-Methoxy-benzoyl)-piperidin-4-yl]-3-trifluoromethyl-benzoyl}-guanidine]", "IC50": 195}, {"molecule": "COc1ccc(C(=O)N2CCC(c3ccc(C(=O)NC(=N)N)cc3C(F)(F)F)CC2)c2ccccc12", "note": "[N-{4-[1-(4-Methoxy-naphthalene-1-carbonyl)-piperidin-4-yl]-3-trifluoromethyl-benzoyl}-guanidine]", "IC50": 320}, {"molecule": "COCc1ccc(C(=O)N2CCC(c3ccc(C(=O)NC(=N)N)cc3C(F)(F)F)CC2)cc1", "note": "[N-{4-[1-(4-Methoxymethyl-benzoyl)-piperidin-4-yl]-3-trifluoromethyl-benzoyl}-guanidine]", "IC50": 122}, {"molecule": "CN1CCOc2cc(C(=O)N3CCC(c4ccc(C(=O)NC(=N)N)cc4C(F)(F)F)CC3)ccc21", "note": "[N-{4-[1-(4-Methyl-3,4-dihydro-2H-benzo[1,4]oxazine-7-carbonyl)-piperidin-4-yl]-3-trifluoromethyl-benzoyl}-guanidine]", "IC50": 47}, {"molecule": "N=C(N)NC(=O)c1ccc(C2CCN(C(=O)c3ccc(-c4cnco4)cc3)CC2)c(C(F)(F)F)c1", "note": "[N-{4-[1-(4-Oxazol-5-yl-benzoyl)-piperidin-4-yl]-3-trifluoromethyl-benzoyl}-guanidine]", "IC50": 109}, {"molecule": "N=C(N)NC(=O)c1ccc(C2CCN(C(=O)c3ccc(-n4cccn4)cc3)CC2)c(C(F)(F)F)c1", "note": "[N-{4-[1-(4-Pyrazol-1-yl-benzoyl)-piperidin-4-yl]-3-trifluoromethyl-benzoyl}-guanidine]", "IC50": 88}, {"molecule": "N=C(N)NC(=O)c1ccc(C2CCN(C(=O)c3ccc(N4CCCC4)cc3)CC2)c(C(F)(F)F)c1", "note": "[N-{4-[1-(4-Pyrrolidin-1-yl-benzoyl)-piperidin-4-yl]-3-trifluoromethyl-benzoyl}-guanidine]", "IC50": 250}, {"molecule": "N=C(N)NC(=O)c1ccc(C2CCN(C(=O)c3ccc(S(=O)(=O)C(F)(F)F)cc3)CC2)c(C(F)(F)F)c1", "note": "[N-{4-[1-(4-Trifluoromethanesulfonyl-benzoyl)-piperidin-4-yl]-3-trifluoromethyl-benzoyl}-guanidine]", "IC50": 230}, {"molecule": "Cc1cc(C2CCN(C(=O)c3ccc(C#N)cc3)CC2)c(C(F)(F)F)cc1C(=O)NC(=N)N", "note": "[N-{4-[1-(4-cyano-benzoyl)-piperidin-4-yl]-2-methyl-5-trifluoromethyl-benzoyl}-guanidine]", "IC50": 36}, {"molecule": "Cc1cc(C2CCN(C(=O)c3ccc(C#N)cc3)CC2)c(S(C)(=O)=O)cc1C(=O)NC(=N)N", "note": "[N-{4-[1-(4-cyano-benzoyl)-piperidin-4-yl]-5-methanesulfonyl-2-methyl-benzoyl}-guanidine]", "IC50": 27}, {"molecule": "N=C(N)NC(=O)c1ccc(C2CCN(C(=O)c3cncc(-c4ccccc4)c3)CC2)c(C(F)(F)F)c1", "note": "[N-{4-[1-(5-Phenyl-pyridine-3-carbonyl)-piperidin-4-yl]-3-trifluoromethyl-benzoyl}-guanidine]", "IC50": 204}, {"molecule": "N#Cc1ccc(C(=O)N2CCC(c3ccc(C(=O)NC(=N)N)cc3C(F)(F)F)CC2)cn1", "note": "[N-{4-[1-(6-Cyano-pyridine-3-carbonyl)-piperidin-4-yl]-3-trifluoromethyl-benzoyl}-guanidine]", "IC50": 39}, {"molecule": "N=C(N)NC(=O)c1ccc(C2CCN(C(=O)c3ccc(O)nc3)CC2)c(C(F)(F)F)c1", "note": "[N-{4-[1-(6-Hydroxy-pyridine-3-carbonyl)-piperidin-4-yl]-3-trifluoromethyl-benzoyl}-guanidine]", "IC50": 21}, {"molecule": "N=C(N)NC(=O)c1ccc(C2CCN(C(=O)c3ccc(-n4ccnc4)nc3)CC2)c(C(F)(F)F)c1", "note": "[N-{4-[1-(6-Imidazol-1-yl-pyridine-3-carbonyl)-piperidin-4-yl]-3-trifluoromethyl-benzoyl}-guanidine]", "IC50": 14}, {"molecule": "COc1ccc2cc(C(=O)N3CCC(c4ccc(C(=O)NC(=N)N)cc4C(F)(F)F)CC3)ccc2c1", "note": "[N-{4-[1-(6-Methoxy-naphthalene-2-carbonyl)-piperidin-4-yl]-3-trifluoromethyl-benzoyl}-guanidine]", "IC50": 390}, {"molecule": "COc1ccc(C(=O)N2CCC(c3ccc(C(=O)NC(=N)N)cc3C(F)(F)F)CC2)cn1", "note": "[N-{4-[1-(6-Methoxy-pyridine-3-carbonyl)-piperidin-4-yl]-3-trifluoromethyl-benzoyl}-guanidine]", "IC50": 58}, {"molecule": "N=C(N)NC(=O)c1ccc(C2CCN(C(=O)c3ccc(-n4cccn4)nc3)CC2)c(C(F)(F)F)c1", "note": "[N-{4-[1-(6-Pyrazol-1-yl-pyridine-3-carbonyl)-piperidin-4-yl]-3-trifluoromethyl-benzoyl}-guanidine]", "IC50": 92}, {"molecule": "N=C(N)NC(=O)c1ccc(C2CCN(C(=O)c3ccc(N4CCCC4)nc3)CC2)c(C(F)(F)F)c1", "note": "[N-{4-[1-(6-Pyrrolidin-1-yl-pyridine-3-carbonyl)-piperidin-4-yl]-3-trifluoromethyl-benzoyl}-guanidine]", "IC50": 75}, {"molecule": "N=C(N)NC(=O)c1ccc(C2CCN(C(=O)c3ccc4ncsc4c3)CC2)c(C(F)(F)F)c1", "note": "[N-{4-[1-(Benzothiazole-6-carbonyl)-piperidin-4-yl]-3-trifluoromethyl-benzoyl}-guanidine]", "IC50": 114}]}]}
